Measured values from patent publication US8440206B2 (priority 2006, dated 2013).

System: CD8+ T cells
Type: cell-based, human

ELPQWLSANR
#SFU: <10

RADEEQQQAL
#SFU: 120

QTVEDEARRMW
#SFU: 84
